# Patent US20190274974A1, “Treatment of Pain Associated with Trigeminal Neuralgia” (priority 2011, published 2019)
# “Also recorded” adds a separate entry of the source.
# How the values were obtained:
# CCI-SN rats = format: in vivo, rat
# Description: Rats are anaesthetized with sodium pentobarbital (50 mg/kg i.p.). Unilateral CCI-SN is performed under direct visual control using a Zeiss microscope (10-25×) essentially as described by Bennett and Xie (G. J. Bennett et al., Pain, 33 (1988) 87-107).
# Mechanical sensitivity is determined with a graded series of von Frey filaments (Bioseb, Bordeaux, France; bending force: 0.07-60.0 g). The stimuli are applied within the SN territory (midplantar surface of the left hindpaw) three times at the nerve-injured side (ipsilateral, left) and then at the contralateral side for a total of 6 applications of each filament per rat, always beginning with the filament producing the lowest force. The von Frey filaments are applied at least 3 seconds after the rats returned to their initial resting state. For each session, the complete series of von Frey filaments is tested in increasing force order. The minimal force filament causing a hindpaw withdrawal response allows determination of the mechanical response threshold. The 60 g filament is the cut-off threshold.
# For studying the effects of acute treatment with tapentadol in CCI-SN rats, tapentadol (1, 3 and 10 mg/kg i.p.) or its vehicle (0.9% NaCl i. p.) was injected acutely 14 days after surgery. Sham-operated rats were treated in parallel. Pressure threshold values to trigger nocifensive responses to von Frey filaments application onto the plantar surface of ipsilateral hindpaw were determined at various times after acute injection of tapentadol or saline. Cut-off was fixed at 60 g pressure.
# For studying the effects of subchronic treatment with tapentadol in CCI-SN rats, starting on day 16 (Time=D) after surgery, they received i.p. injections of tapentadol (10 mg/kg, twice daily, at 10:00 AM and 6:00 PM) or saline (at the same day times as the drug) for four days. On the following day (day 20 after surgery), both tapentadol- and saline-pretreated CCI-SN rats were i.p. injected with Tapentadol (10 mg/kg; Time=0) and then subjected to von Frey filaments'test applied to ipsilateral hindpaw for determination of pressure threshold values at various times thereafter.
# In a second part of this study (B), unilateral chronic constriction injury to the sciatic nerve was performed two weeks before acute treatment with reboxetine (10 mg/kg i.p.), tapentadol (10 mg/kg i.p.) or saline (0.5 ml i.p./rat). Pressure threshold values were then determined at various times using von Frey filaments test applied to ipsilateral hindpaw.
# Morphine (1, 3 and 10 mg/kg s.c.) or its vehicle (0.9% NaCl) was injected acutely 14 days after CCI-SN surgery. Sham-operated rats were treated in parallel. Pressure threshold values to trigger nocifensive responses to von Frey filaments application onto the plantar surface of ipsilateral hindpaw were determined at various times after acute injection of morphine or saline.
# 14 days after CCI-SN surgery, rats were injected with reboxetine (10 mg/kg i.p.) or its vehicle (0.9% NaCl) followed, 15 min later, by morphine (1 mg/kg s.c.) or its vehicle (0.9% NaCl) and subjected to von Frey filament tests for the following 4 hours. Sham-operated rats were treated in parallel.
# The results are depicted in FIG. 11.
# BDNF-induced allodynia = assay: Mechanical allodynia induced by intrathecal administration of BDNF in healthy rats (von Frey filaments test); format: in vivo, rat
# Description: In a first part of this study, BDNF (0.3 ng in 25 μl of saline per rat) or saline (25 μl) was injected intrathecally in adult male rats slightly anesthetized with isoflurane (according to Mestre et al. (1994), J. Pharmacol. Toxicol. Meth., 32, 197-200), and animals were subjected to von Frey filaments test applied to hindpaws at various times thereafter.
# In a second part of this study, tapentadol (3 or 10 mg/kg i.p.) or saline was administered to rats on the 7th day (Time=0 on abscissa) after intrathecal injection of BDNF (Time=C) as described above. Pressure threshold values were determined using von Frey filaments test applied to hindpaws.
# In a first part of this study (A), reboxetine (10 mg/kg i.p.; mesylate, Ascent Scientific, Bristol, UK), tapentadol (10 mg/kg i.p.) or saline (0.5 ml i.p./rat) was injected on the 7th day after intrathecal administration of BDNF (0.3 ng in 25 μl of saline per rat). Pressure threshold values were determined at various times thereafter using von Frey filaments test applied to hindpaws.
structure (smiles),measurement,setting,value
"CC[C@@H](c1cccc(O)c1)[C@@H](C)CN(C)C [tapentadol, (−)-(1R,2R)-3-(3-dimethylamino-1-ethyl-2-methyl-propyl)-phenol]",increase in pressure threshold value,"CCI-SN rats; 1 mg/kg i.p., acute, first 15-30 min after injection, non significant",approximately 40%
same,effect on pressure threshold values,"CCI-SN rats; 3 mg/kg i.p., acute","increased pressure threshold values, but to a lower extent than 10 mg/kg i.p."
same,anti-allodynic effect of last administration after subchronic pretreatment (sensitization/desensitization),"CCI-SN rats; 10 mg/kg i.p. twice daily for four days or saline, then 10 mg/kg i.p. on day 20","produced the same anti-allodynic effects in saline-pretreated and tapentadol-pretreated rats; also recorded: neither in CCI-SN rats nor in those with CCI-ION, any sign of sensitization or desensitization"
same,pressure threshold values compared to healthy control values,"CCI-SN rats; 10 mg/kg i.p., acute, 15-30 min after administration",no longer differed from healthy control values
same,mechanical allodynia compared to saline-treated CCI-SN rats,"CCI-SN rats; 10 mg/kg i.p., acute, 90 min after injection",did not significantly differ from that measured in saline-treated CCI-SN rats
same,pressure threshold values after the last injection under subchronic treatment,"CCI-SN rats; 10 mg/kg i.p., first 45 min after last injection",markedly increased pressure threshold values
same,dose dependence of anti-allodynic effect,"CCI-SN rats; 1-10 mg/kg i.p. dose range, acute",clear dose-dependent anti-allodynic effect
same,time at which the maximal increase in pressure threshold was reached,BDNF-induced allodynia; 10 mg/kg i.p.,15 min
same,pressure threshold values compared to untreated healthy rats,"BDNF-induced allodynia; 10 mg/kg i.p., 15-30 min after injection",return of pressure threshold values up to levels determined in untreated healthy rats
same,"reversal of BDNF-induced allodynia, dose dependence","BDNF-induced allodynia; 3 or 10 mg/kg i.p., 7th day after intrathecal BDNF",reversed BDNF-induced allodynia in a dose-dependent manner
